Results as given in publication PMC4770715, “LIM kinase inhibitors disrupt mitotic microtubule organization and impair tumor cell proliferation” (Oncotarget, 2015).

How the values were obtained:
Assay in all cases: biochemical
Parameters in all cases: KINOMEscan active-site competition binding, percent of control (100 = no competition)
Conditions in all cases: competition binding, percent control
IRAK1 = IRAK1 (Homo sapiens, UniProt P51617)
[1] = target: T1, TYK2(JH2domain-pseudokinase) (Homo sapiens, UniProt P29597)
T1 construct: JH2domain-pseudokinase
T1 sequence (P29597 whole entry): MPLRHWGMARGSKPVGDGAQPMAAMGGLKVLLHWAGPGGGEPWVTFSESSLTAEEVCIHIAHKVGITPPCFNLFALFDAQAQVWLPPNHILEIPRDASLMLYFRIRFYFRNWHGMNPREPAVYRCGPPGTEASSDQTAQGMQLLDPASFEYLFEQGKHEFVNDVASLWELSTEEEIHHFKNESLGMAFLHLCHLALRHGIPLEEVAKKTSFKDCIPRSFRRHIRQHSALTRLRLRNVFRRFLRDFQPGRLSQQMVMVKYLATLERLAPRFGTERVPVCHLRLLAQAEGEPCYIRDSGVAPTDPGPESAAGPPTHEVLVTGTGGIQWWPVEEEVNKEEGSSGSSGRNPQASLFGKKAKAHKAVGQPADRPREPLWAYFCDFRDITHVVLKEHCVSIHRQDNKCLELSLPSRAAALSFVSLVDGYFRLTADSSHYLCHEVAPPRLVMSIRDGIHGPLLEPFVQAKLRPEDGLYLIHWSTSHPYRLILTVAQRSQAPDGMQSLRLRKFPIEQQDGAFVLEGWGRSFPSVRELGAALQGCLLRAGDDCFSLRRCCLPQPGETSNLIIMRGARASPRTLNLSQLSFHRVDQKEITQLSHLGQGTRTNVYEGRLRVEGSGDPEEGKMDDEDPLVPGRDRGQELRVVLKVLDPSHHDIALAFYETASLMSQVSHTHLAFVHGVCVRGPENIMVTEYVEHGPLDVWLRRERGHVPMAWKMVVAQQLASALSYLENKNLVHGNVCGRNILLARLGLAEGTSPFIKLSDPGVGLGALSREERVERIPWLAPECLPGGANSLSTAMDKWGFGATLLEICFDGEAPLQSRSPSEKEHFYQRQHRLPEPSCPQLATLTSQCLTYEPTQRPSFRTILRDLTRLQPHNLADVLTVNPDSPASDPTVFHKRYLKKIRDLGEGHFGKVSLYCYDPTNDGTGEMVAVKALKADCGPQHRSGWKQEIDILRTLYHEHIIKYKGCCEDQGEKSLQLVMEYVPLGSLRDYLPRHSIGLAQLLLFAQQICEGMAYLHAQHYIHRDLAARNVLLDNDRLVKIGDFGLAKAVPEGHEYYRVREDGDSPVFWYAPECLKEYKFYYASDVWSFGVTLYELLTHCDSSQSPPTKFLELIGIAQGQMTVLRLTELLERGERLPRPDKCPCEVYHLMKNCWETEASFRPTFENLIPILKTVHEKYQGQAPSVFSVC

ASK2 = target: T2, ASK2 (Homo sapiens, UniProt O95382)
T2 construct: gene MAP3K6
T2 sequence (O95382 whole entry): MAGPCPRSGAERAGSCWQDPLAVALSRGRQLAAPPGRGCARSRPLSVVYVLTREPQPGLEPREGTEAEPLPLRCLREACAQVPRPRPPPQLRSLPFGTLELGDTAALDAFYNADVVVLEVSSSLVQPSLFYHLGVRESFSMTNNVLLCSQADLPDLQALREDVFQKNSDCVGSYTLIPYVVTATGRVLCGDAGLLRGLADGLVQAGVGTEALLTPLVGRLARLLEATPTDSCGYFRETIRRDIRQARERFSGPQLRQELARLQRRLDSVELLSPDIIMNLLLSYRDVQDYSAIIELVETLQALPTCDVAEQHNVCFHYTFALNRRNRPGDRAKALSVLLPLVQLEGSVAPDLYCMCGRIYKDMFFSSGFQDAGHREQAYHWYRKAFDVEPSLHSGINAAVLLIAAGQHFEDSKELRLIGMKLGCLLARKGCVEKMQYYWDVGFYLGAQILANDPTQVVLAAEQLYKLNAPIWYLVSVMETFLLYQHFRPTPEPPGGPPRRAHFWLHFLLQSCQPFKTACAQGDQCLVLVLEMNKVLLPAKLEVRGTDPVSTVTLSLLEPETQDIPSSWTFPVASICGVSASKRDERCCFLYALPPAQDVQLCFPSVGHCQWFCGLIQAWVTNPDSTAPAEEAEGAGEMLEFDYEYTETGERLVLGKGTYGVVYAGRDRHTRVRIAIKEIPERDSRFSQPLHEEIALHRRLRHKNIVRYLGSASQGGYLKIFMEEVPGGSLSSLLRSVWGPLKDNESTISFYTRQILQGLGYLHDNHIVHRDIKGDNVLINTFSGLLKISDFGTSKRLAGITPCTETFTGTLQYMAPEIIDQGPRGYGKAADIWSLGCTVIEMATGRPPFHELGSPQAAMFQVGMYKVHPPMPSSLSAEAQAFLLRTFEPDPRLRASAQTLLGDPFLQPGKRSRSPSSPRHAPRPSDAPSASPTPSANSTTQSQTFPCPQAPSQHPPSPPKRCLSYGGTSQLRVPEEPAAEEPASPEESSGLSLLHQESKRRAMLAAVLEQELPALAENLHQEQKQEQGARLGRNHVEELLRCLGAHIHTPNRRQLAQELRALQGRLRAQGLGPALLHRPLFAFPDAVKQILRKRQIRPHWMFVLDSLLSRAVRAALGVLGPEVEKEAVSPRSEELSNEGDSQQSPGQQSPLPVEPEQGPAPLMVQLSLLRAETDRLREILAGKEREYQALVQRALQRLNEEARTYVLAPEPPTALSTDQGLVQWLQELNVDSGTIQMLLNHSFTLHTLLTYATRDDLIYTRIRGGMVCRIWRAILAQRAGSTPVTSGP

CLK4 = CLK4 (Homo sapiens, UniProt Q9HAZ1)
BRSK1 = BRSK1 (Homo sapiens, UniProt Q8TDC3)
PIK3CA(H1047L) = PIK3CA(H1047L) (Homo sapiens, UniProt P42336, H1047L)
Sequence of PIK3CA(H1047L) (P42336 whole entry H1047L): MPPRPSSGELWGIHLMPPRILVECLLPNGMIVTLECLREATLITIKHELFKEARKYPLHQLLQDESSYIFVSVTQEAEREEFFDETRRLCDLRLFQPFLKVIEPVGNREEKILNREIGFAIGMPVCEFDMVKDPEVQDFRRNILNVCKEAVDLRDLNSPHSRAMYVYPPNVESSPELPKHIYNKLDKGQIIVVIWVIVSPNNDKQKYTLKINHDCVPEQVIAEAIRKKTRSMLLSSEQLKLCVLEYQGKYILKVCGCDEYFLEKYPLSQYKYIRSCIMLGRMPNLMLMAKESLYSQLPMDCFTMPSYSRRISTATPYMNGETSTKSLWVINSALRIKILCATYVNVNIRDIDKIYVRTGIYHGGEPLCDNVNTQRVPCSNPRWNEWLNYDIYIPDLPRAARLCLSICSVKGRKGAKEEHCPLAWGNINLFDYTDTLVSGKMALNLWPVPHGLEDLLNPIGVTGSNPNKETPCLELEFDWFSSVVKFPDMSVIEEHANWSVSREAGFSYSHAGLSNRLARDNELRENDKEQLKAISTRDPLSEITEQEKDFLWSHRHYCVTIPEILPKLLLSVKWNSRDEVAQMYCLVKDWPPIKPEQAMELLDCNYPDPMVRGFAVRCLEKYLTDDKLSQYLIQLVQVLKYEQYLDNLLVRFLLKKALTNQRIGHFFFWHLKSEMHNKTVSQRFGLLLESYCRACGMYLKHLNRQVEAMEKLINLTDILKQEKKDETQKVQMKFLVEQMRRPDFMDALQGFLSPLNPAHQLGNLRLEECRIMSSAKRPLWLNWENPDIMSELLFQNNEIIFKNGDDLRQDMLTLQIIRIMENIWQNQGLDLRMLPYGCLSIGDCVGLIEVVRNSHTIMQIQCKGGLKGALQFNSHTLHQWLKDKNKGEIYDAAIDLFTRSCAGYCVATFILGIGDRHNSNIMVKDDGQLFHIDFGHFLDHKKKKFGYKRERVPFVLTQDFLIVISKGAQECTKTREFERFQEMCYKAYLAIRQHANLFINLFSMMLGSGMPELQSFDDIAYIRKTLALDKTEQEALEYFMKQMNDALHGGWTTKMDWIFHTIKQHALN

[2] = target: T3, ABL1(H396P)-phosphorylated (Homo sapiens, UniProt P00519, H396P)
T3 construct: phosphorylated

[3] = target: T4, ABL1(M351T)-phosphorylated (Homo sapiens, UniProt P00519, M351T)
T4 construct: phosphorylated

SgK110 = target: T5, SgK110 (Homo sapiens, UniProt P0C264)
T5 construct: gene SBK3

PRKG1 = PRKG1 (Homo sapiens, UniProt Q13976)
PLK4 = PLK4 (Homo sapiens, UniProt O00444)
Sequence of PLK4 (O00444 whole entry): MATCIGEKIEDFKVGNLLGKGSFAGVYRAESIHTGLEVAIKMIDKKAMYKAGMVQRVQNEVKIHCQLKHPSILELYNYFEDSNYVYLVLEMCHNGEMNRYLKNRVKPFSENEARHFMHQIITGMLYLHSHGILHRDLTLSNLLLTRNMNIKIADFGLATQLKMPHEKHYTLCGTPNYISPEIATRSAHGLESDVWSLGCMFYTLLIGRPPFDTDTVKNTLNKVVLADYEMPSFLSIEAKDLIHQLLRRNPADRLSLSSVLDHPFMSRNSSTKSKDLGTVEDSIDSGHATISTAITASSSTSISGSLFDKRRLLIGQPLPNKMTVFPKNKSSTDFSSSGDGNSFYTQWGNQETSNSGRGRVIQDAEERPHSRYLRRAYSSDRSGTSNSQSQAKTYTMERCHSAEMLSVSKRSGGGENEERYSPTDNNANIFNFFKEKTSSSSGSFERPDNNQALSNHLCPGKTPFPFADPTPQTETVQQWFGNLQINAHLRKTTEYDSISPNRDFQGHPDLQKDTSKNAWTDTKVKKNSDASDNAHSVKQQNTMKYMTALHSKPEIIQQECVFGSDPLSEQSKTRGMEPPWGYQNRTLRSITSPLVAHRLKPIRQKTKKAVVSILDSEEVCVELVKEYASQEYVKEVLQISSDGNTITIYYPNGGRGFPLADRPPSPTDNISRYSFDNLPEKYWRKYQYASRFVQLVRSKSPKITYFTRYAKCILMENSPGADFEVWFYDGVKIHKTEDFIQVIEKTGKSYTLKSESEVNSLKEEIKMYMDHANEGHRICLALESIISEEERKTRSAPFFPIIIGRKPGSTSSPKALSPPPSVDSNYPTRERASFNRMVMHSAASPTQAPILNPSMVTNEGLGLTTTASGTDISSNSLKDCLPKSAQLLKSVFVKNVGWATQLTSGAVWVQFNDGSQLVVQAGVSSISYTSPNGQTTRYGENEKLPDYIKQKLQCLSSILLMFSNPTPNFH

PHKG1 = PHKG1 (Homo sapiens, UniProt Q16816)
Sequence of PHKG1 (Q16816 whole entry): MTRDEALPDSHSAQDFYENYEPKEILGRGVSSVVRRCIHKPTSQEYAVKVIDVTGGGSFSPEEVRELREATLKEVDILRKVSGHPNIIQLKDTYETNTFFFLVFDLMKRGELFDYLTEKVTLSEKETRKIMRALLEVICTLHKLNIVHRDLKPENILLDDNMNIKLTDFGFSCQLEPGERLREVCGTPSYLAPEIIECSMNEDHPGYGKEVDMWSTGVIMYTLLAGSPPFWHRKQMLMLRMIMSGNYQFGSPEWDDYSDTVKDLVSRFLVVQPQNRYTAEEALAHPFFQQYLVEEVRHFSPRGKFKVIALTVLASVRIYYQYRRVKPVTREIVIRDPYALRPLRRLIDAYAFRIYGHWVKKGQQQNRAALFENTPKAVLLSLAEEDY

ROCK2 = ROCK2 (Homo sapiens, UniProt O75116)
PAK1 = PAK1 (Homo sapiens, UniProt Q13153)
ERK2 = target: T6, ERK2 (Homo sapiens, UniProt P28482)
T6 construct: gene MAPK1

PIK3CD = PIK3CD (Homo sapiens, UniProt O00329)
EGFR(T790M) = EGFR(T790M) (Homo sapiens, UniProt P00533, T790M)
TRPM6 = TRPM6 (Homo sapiens, UniProt Q9BX84)
FLT3(N841I) = FLT3(N841I) (Homo sapiens, UniProt P36888, N841I)
MRCKB = target: T7, MRCKB (Homo sapiens, UniProt Q9Y5S2)
T7 construct: gene CDC42BPB

ARK5 = target: T8, ARK5 (Homo sapiens, UniProt O60285)
T8 construct: gene NUAK1

MLK2 = target: T9, MLK2 (Homo sapiens, UniProt Q02779)
T9 construct: gene MAP3K10

ERN1 = ERN1 (Homo sapiens, UniProt O75460)

Row | Compound | remaining binding at 10 µM (IRAK1) [%] | remaining binding at 10 µM [1] [%] | remaining binding at 10 µM (ASK2) [%] | remaining binding at 10 µM (CLK4) [%] | remaining binding at 10 µM (BRSK1) [%] | remaining binding at 10 µM (PIK3CA(H1047L)) [%] | remaining binding at 10 µM [2] [%] | remaining binding at 10 µM [3] [%] | remaining binding at 10 µM (SgK110) [%] | remaining binding at 10 µM (PRKG1) [%] | remaining binding at 10 µM (PLK4) [%] | remaining binding at 10 µM (PHKG1) [%] | remaining binding at 10 µM (ROCK2) [%] | remaining binding at 10 µM (PAK1) [%] | remaining binding at 10 µM (ERK2) [%] | remaining binding at 10 µM (PIK3CD) [%] | remaining binding at 10 µM (EGFR(T790M)) [%] | remaining binding at 10 µM (TRPM6) [%] | remaining binding at 10 µM (FLT3(N841I)) [%] | remaining binding at 10 µM (MRCKB) [%] | also measured
1 | COc1ccc(-c2cnccc2-c2cnc(NC(=O)C(C)C)s2)c(C(F)(F)F)c1 [CRT0105446, N-{5-[3-(4-Methoxy-2-trifluoromethyl-phenyl)-pyridin-4-yl]-hiazol-2-yl}-isobutyramide] | 94 | 100 | 100 | 100 | 27 | 100 | 82 | 83 | 100 | 100 | 89 | 78 | 95 | 57 | 100 | 100 | 78 | 94 | 22 | 93 | remaining binding at 10 µM (ARK5): 59%; remaining binding at 10 µM (MLK2): 69%; remaining binding at 10 µM (ERN1): 87%
2 | Cc1ccc(-c2cnccc2-c2cnc(Nc3ccc(O)cc3)s2)c(Cl)c1 [CRT0105950, 4-{5-[3-(2-Chloro-4-methyl-phenyl)-pyridin-4-yl]-thiazol-2-ylamino}-phenol] | 56 | 81 | 100 | 1.6 | 30 | 97 | 72 | 66 | 25 | 72 | 43 | 56 | 77 | 97 | 100 | 100 | 63 | 93 | 0 | 78 | remaining binding at 10 µM (ARK5): 49%; remaining binding at 10 µM (MLK2): 40%; remaining binding at 10 µM (ERN1): 68%
